Measurements reported in ChEMBL document CHEMBL5346860, “Cancer multidrug-resistance reversal by ABCB1 inhibition: A recent update” (Eur J Med Chem, 2022).
Converted amounts (≈) assume the structure as drawn. Each block holds one compound with its values, some of them ahead of it.

What was measured:
[1] = target: T1, ATP-dependent translocase ABCB1 (Homo sapiens, UniProt P08183); test: Inhibition of P-gp1 efflux in human Flp-In-293 cells using rhodamine as substrate assessed as increase in intracellular accumulation of rhodamine 123 preincubated for 30 mins followed by substrate addition and measured for 10 mins by fluorescence based assay; type: cell-based
[2] = target: T1, ATP-dependent translocase ABCB1; test: Inhibition of P-gp1 efflux in human Flp-In-293 cells using calcein-AM as substrate assessed as increase in intracellular accumulation of calcein-AM preincubated for 30 mins followed by substrate addition and measured for 30 mins by fluorescence based assay; type: cell-based
[3] = target: T1, ATP-dependent translocase ABCB1; test: Inhibition of ABCB1 efflux pump in human LS180 cells using Rh123 as substrate incubated for 90 mins by fluorescence based assay; type: cell-based
[4] = cells; settings: Homo sapiens, EPP85-181RDB, 72 h
Description: Antiproliferative activity against daunorubicin-resistant human EPP85-181 cells incubated for 72 hrs by annexin-V-PI staining based flow cytometry

[5] = Antiproliferative activity against daunorubicin-resistant human EPG85-257 cells incubated for 72 hrs by annexin-V-PI staining based flow cytometry; type: functional, EPG85-257RDB
[6] = test system: L5178Y; test: Cytotoxicity against multidrug-resistant mouse L5178Y cells expressing ABCB1 assessed as cell growth inhibition incubated for 24 hrs by MTT assay; type: functional, cell-based
[7] = test system: L5178Y; test: Cytotoxicity against multi-drug resistant mouse L5178Y cells expressing ABCB1 assessed as cell growth inhibition incubated for 24 hrs by MTT assay; type: functional, cell-based
[8] = target: T1, ATP-dependent translocase ABCB1; test: Inhibition of P-gp efflux pump in human MCF7 cells assessed as fold increase in vinblastine cellular accumulation; type: cell-based
[9] = target: T2, Broad substrate specificity ATP-binding cassette transporter ABCG2 (Homo sapiens, UniProt Q9UNQ0); test: Inhibition of BCRP efflux pump in human MCF7 cells assessed as fold increase in vinblastine cellular accumulation; type: cell-based
T2 sequence (Q9UNQ0 whole entry): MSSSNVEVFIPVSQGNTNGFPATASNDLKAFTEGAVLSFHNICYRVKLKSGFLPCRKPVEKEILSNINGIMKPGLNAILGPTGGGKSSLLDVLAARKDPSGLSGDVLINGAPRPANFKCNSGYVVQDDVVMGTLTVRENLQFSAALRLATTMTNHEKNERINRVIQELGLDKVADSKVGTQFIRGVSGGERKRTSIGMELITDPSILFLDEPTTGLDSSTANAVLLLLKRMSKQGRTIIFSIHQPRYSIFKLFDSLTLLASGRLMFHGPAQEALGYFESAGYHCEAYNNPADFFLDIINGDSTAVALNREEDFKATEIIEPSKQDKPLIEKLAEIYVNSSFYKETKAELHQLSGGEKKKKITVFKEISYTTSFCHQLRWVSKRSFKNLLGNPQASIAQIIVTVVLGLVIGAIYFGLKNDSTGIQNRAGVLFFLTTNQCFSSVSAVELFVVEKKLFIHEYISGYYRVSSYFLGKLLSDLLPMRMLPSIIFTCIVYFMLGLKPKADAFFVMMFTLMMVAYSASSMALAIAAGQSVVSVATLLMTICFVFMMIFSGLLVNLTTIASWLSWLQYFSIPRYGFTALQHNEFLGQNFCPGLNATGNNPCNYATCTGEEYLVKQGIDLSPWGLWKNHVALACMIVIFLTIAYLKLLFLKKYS

[10] = target: Multidrug resistance-associated protein 1 (Homo sapiens, UniProt P33527); test: Inhibition of MRP1 efflux pump in human MCF7 cells assessed as fold increase in vinblastine cellular accumulation; type: cell-based
[11] = test system: KB 3-1; test: cells; settings: Homo sapiens, KB 3-1, 72 h
Description: Cytotoxicity against human KB 3-1 cells assessed as cell growth inhibition incubated for 72 hrs by MTS assay

[12] = test system: KB-V1; test: cells; settings: Homo sapiens, KB-V1, 72 h
Description: Cytotoxicity against human KB-V1 cells assessed as cell growth inhibition incubated for 72 hrs by MTS assay

[13] = Reversal of paclitaxel resistance in human Flp-In-293 cells expressing ABCB1 assessed as cell growth inhibition in presence of caffeic acid for 30 mins by fluorescence based assay; type: functional; settings: Flp-In-293, 0.5 h
[14] = Reversal of vincristine resistance in human Flp-In-293 cells expressing ABCB1 assessed as cell growth inhibition in presence of caffeic acid for 30 mins by fluorescence based assay; type: functional; settings: Flp-In-293, 0.5 h
[15] = Reversal of vincristine resistance in human Flp-In-293 cells expressing ABCB1 assessed as fold change in vincristine IC50 in presence of caffeic acid for 30 mins by fluorescence based assay; type: functional; settings: 0.5 h
[16] = Reversal of […] in human Flp-In-293 cells expressing ABCB1 assessed as fold change in doxorubicin IC50 in presence of caffeic acid for 30 mins by fluorescence based assay; type: functional; settings: 0.5 h
[17] = Reversal of doxorubicin resistance in human Flp-In-293 cells expressing ABCB1 assessed as cell growth inhibition in presence of caffeic acid for 30 mins by fluorescence based assay; type: functional; settings: Flp-In-293, 0.5 h
[18] = Reversal of paclitaxel resistance in human Flp-In-293 cells expressing ABCB1 assessed as fold change in paclitaxel IC50 in presence of caffeic acid for 30 mins by fluorescence based assay; type: functional; settings: 0.5 h

T1 sequence (P08183 whole entry): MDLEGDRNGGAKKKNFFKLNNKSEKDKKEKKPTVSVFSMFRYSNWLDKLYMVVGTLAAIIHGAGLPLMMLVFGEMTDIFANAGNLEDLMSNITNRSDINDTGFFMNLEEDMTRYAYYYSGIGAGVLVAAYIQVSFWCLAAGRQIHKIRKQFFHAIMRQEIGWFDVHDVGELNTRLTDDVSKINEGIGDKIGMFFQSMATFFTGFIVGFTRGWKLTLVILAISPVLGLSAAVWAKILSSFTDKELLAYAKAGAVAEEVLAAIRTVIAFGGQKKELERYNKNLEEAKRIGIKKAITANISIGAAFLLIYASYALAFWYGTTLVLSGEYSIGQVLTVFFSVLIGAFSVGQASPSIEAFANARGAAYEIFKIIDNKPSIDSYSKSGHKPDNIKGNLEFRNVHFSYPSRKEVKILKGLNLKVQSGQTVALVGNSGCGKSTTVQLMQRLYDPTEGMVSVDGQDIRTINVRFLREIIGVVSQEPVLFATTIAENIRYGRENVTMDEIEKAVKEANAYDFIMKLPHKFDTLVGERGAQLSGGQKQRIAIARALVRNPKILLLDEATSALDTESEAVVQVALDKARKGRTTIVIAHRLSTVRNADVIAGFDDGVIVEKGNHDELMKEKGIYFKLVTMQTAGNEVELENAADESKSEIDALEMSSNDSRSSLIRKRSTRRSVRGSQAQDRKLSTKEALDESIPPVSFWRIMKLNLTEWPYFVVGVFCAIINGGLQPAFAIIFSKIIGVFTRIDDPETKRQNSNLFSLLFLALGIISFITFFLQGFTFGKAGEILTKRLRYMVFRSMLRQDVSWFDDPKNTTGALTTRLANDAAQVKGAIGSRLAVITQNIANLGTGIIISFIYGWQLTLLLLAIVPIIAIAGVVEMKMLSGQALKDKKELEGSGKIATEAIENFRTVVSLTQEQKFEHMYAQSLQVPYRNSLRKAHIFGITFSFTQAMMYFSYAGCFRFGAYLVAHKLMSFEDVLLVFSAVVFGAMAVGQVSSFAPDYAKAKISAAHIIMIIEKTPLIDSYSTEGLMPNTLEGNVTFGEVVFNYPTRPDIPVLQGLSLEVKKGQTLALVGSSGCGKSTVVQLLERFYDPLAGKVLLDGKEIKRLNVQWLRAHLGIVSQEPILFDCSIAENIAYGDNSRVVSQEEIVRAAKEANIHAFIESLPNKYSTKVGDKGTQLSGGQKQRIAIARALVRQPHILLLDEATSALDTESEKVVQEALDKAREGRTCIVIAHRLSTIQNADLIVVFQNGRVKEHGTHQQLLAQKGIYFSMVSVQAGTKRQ
Sequence of Multidrug resistance-associated protein 1 (P33527 whole entry): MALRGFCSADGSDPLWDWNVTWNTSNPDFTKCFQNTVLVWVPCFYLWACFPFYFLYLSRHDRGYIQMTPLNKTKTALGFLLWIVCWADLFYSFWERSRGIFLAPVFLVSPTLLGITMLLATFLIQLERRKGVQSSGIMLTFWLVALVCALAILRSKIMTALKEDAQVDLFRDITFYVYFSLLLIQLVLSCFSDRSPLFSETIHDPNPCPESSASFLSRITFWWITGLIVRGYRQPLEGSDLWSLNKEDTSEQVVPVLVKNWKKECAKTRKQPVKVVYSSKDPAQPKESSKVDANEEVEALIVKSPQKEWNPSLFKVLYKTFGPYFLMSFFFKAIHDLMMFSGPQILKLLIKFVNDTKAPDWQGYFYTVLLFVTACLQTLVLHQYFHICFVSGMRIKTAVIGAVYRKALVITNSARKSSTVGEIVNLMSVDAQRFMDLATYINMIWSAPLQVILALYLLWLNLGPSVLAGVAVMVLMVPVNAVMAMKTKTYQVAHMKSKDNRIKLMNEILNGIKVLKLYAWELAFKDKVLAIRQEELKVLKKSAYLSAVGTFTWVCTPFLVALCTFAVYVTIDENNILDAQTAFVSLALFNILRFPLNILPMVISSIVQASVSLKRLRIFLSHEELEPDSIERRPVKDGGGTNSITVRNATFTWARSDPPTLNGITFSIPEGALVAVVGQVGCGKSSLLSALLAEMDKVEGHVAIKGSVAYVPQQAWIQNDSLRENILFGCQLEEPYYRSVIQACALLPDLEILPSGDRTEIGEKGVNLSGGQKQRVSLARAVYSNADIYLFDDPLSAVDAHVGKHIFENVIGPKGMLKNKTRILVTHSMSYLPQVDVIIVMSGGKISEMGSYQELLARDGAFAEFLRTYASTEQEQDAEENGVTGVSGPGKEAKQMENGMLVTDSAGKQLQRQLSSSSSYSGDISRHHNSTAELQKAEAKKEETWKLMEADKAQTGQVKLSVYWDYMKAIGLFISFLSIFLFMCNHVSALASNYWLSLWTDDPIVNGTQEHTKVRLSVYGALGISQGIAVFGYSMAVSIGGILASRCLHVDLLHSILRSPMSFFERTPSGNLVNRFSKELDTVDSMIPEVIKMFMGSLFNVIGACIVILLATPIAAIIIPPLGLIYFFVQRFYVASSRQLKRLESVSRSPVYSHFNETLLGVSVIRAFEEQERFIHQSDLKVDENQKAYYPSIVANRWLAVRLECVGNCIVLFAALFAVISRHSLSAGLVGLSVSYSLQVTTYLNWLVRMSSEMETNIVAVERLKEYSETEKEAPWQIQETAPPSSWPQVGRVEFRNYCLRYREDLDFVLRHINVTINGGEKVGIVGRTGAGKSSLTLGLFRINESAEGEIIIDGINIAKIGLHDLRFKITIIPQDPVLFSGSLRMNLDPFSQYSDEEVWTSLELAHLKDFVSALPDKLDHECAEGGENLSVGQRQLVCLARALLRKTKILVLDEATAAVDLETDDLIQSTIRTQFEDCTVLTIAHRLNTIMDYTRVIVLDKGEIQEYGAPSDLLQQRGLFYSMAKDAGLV

Compound: C#CCn1c(-c2ccc(OC)cc2)nc2cc(Br)cnc21
IC50 [6]: 0.2 µM

Compound: O=C(C(C(=O)C(F)(F)C(F)(F)F)=P(c1ccccc1)(c1ccccc1)c1ccccc1)c1ccccc1
IC50 [7]: 39.4 µg/mL (≈ 74.7 µM)

Compound: O=C(C(C(=O)C(F)(F)C(F)(F)C(F)(F)F)=P(c1ccccc1)(c1ccccc1)c1ccccc1)c1ccccc1
IC50 [7]: 42.4 µg/mL (≈ 73.5 µM)

Compound: O=C(C(C(=O)C(F)(F)F)=P(c1ccccc1)(c1ccccc1)c1ccccc1)c1ccccc1
IC50 [7]: 37 µg/mL (≈ 77.7 µM)

Compound: O=C(O)/C=C/c1ccc(O)c(O)c1 [CAFFEIC ACID]
IC50 [13]: 0.125 µM
IC50 [14]: 0.198 µM
fold change (FC) [15]: 3.9
fold change (FC) [16]: 15.11
IC50 [17]: 0.597 µM
fold change (FC) [18]: 4.96

Compound: C/C=C/C[C@@H](C)[C@@H](O)[C@H]1C(=O)N[C@@H](CC)C(=O)N(C)CC(=O)N(C)[C@@H](CC(C)C)C(=O)N[C@@H](C(C)C)C(=O)N(C)[C@@H](CC(C)C)C(=O)N[C@@H](C)C(=O)N[C@H](C)C(=O)N(C)[C@@H](CC(C)C)C(=O)N(C)[C@@H](CC(C)C)C(=O)N(C)[C@@H](C(C)C)C(=O)N1C [CYCLOSPORINE]
IC50 [11]: 23.9 µM
IC50 [12]: 7.95 µM

More lines, main results first:

IC50 [1]: 1.56 µM
IC50 [2]: 1.56 µM
Compound: COc1cc(/C=C/C(=O)CC(=O)/C=C/c2ccc(O)cc2)ccc1O

EC50 [3]: 35 µM
Compound: O=C(Nc1ccc(F)cc1)c1sccc1Nc1cccc2c1OCCO2

EC50 [3]: 35 µM
Compound: O=C(Nc1ccc(F)cc1)c1sccc1Nc1cccc2c1OCO2

IC50 [4]: 4.8 µM
Compound: C=C1[C@H](OC(=O)C(C)C)C[C@@H](OC(=O)c2cccnc2)C(C)(C)/C=C/[C@@H](C)C(=O)[C@@]2(OC(C)=O)C[C@H](C)[C@H](OC(C)=O)[C@@H]2[C@H]1OC(C)=O
IC5 [5]: 1.8 µM

fold change (FC) [8]: 3
fold change (FC) [9]: 3
fold change (FC) [10]: 3
Compound: CCCN(CCC)S(=O)(=O)c1ccc(C(=O)CC[C@H](N)C(=O)O)cc1

IC50 [11]: 11.5 µM
IC50 [12]: 15.1 µM
Compound: COc1ccc(CCC2c3cc(OCc4ccccc4)c(OC)cc3CCN2C)cc1OCc1ccccc1 (racemic)
